From patent publication US10399991B2, “Kv1.3 inhibitors and their medical applications” (4SC AG, priority 2015, dated 2019)

Legend:
Kv1.3 = Kv1.3 (Homo sapiens (Human), UniProt P22001); assay: Patch-clamp assay for inhibitory activity on Kv1.3 (whole cell patch-clamp recording); type: cell-based; details: n≥2 per concentration
Procedure: Patch-Clamp Assay for Inhibitory Activity on Kv1.3
For a description of a Kv1.3 patch-clamp assay, see Grissmer et al., Mol. Pharmacol. 1994, 45, 1227; whole cell patch-clamp recording was performed with n≥2 individual experiments at each compound concentration using different cells. Three or more different concentrations were determined per dose response curve.

[1] = test system: Peripheral blood mononuclear cells (PBMC); assay: T cell proliferation assay (anti-CD3 activated PBMC, BrdU based cell proliferation ELISA); details: human PBMC, TRAM-34 (5 μM), 50 ng/ml anti-CD3, 48 hours; read-out: IC50(BrdU incorporation)
Text: T cell proliferation assay (in analogy to Pegoraro et al., Bioorg. Med. Chem. Lett. 2009, 19, 2299)
Peripheral blood mononuclear cells (PBMC) from healthy human donors were isolated by centrifugation over a density gradient in an aqueous solution, comprising a high molecular weight polysaccharide and sodium diatrizionate, and having a density of 1.077±0.001 (Ficoll-Hypaque by Sigma-Aldrich, Germany; according to manufacturer's instructions). Purified PBMC were washed twice with PBS and resuspended in RPMI1640 culture medium (Gibco—Life Technologies) supplemented with 10% heat inactivated fetal calf serum, 1.5 mM L-glutamine, 100 U penicillin/ml, and 100 […] (all from PAA—GE Healthcare). For stimulation, PBMC were seeded at 1×10^5 cells/well, incubated with TRAM-34 (5 μM) and the test compounds for 4 h and activated with 50 ng/ml anti-CD3 (from eBioscience). After 48 hours proliferation was measured using a BrdU based cell proliferation ELISA according to the manual.

female Dark Agouti rats = assay: Pristane-induced Arthritis (PIA) model; type: in vivo, rat; details: for Arthritic Index (AI): maximum AI=16, controls AI around 14; for amelioration of arthritis: Example 53 60 mg/kg p.o. sid, Example 34 45 mg/kg p.o. bid
Procedure: Pristane-induced Arthritis (PIA) Model:
Arthritis was induced in female Dark Agouti rats by intradermal injection of 150 μL/rat pristane into the base of the tail on DAY0, according to Vingsbo et al., Am. J. Pathol. 1996, 149, 1675. Compound treatment was started on DAY16 and continued until DAY30, dosing Example 53 at 60 mg/kg, p.o., sid, and Example 34 at 45 mg/kg, p.o., bid, each in a lipophilic formulation. As a positive control, methotrexate (MTX) was dosed i.p., sid, with 0.05 mg/kg, also starting DAY16. Arthritis development was monitored daily by a macroscopic scoring system for the four limbs ranging from 0 to 4 (0=no visible effects of arthritis; 1=edema and/or erythema of one digit; 2=edema and/or erythema of two joints; 3=edema and/or erythema of more than two joints; 4=severe arthritis of the entire paw and digits, associated with ankylosis and deformity of the paw.), resulting in an Arthritic Index (AI) reflecting the sum of scores of all 4 limbs per rat (maximum AI=16).

Sequence of Kv1.3 (P22001 whole entry): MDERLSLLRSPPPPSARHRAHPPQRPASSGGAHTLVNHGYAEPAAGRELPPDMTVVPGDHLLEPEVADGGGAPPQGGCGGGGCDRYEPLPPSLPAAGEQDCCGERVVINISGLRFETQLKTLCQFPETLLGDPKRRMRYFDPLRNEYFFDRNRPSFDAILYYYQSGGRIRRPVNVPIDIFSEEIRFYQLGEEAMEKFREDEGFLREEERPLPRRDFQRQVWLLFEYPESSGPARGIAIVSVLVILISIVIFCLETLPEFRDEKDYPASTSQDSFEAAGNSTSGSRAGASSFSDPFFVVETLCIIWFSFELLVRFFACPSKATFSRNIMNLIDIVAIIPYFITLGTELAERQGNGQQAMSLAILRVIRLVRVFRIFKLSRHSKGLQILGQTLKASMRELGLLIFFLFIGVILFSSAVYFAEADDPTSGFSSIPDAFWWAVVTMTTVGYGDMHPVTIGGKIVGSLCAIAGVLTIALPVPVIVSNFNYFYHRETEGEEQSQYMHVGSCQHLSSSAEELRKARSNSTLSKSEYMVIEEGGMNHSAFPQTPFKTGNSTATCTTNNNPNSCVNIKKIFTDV

With Cc1c(-c2ccccc2)c2cc3c(C)coc3c(C)c2oc1=O [Example 9, 3,6,9-trimethyl-5-phenyl-7H-furo[3,2-g]chromen-7-one] the IC50 (Kv1.3) was ≤ 0.5 µM and the IC50 [1] was ≤ 1.2 µM.

With CCOc1ccccc1-c1c(C)c(=O)oc2c(C)c3occ(C)c3cc12 [Example 10, 5-(2-ethoxyphenyl)-3,6,9-trimethyl-7H-furo[3,2-g]chromen-7-one] the IC50 (Kv1.3) was ≤ 0.5 µM and the IC50 [1] was ≤ 1.2 µM.

With Cc1c(-c2ccccc2Cl)c2cc3c(C)coc3c(C)c2oc1=O [Example 11, 5-(2-chlorophenyl)-3,6,9-trimethyl-7H-furo[3,2-g]chromen-7-one] the IC50 (Kv1.3) was ≤ 0.5 µM and the IC50 [1] was 1.3 to 3 µM.

For CCc1coc2c(C)c3oc(=O)c(C)c(-c4ccccc4)c3cc12 [Example 16, 3-ethyl-6,9-dimethyl-5-phenyl-7H-furo[3,2-g]chromen-7-one], the IC50 (Kv1.3) was ≤ 0.5 µM and the IC50 [1] was ≤ 1.2 µM.

With Cc1c(-c2ccccc2)c2cc3c(C)coc3nc2oc1=O [Example 25, 3,6-dimethyl-5-phenyl-7H-furo[2,3-b]pyrano[3,2-e]pyridin-7-one] the IC50 (Kv1.3) was ≤ 0.5 µM and the IC50 [1] was 1.3 to 3 µM.

For Cc1coc2c(C)c3[nH]c(=O)c(Br)c(-c4ccccc4)c3cc12 [Example 26, 6-bromo-3,9-dimethyl-5-phenylfuro[3,2-g]quinolin-7(8H)-one], the IC50 (Kv1.3) was ≤ 0.5 µM and the IC50 [1] was ≤ 1.2 µM.

In the case of Cc1c(-c2ccccc2F)c2cc3c(C)coc3c(C)c2[nH]c1=O [Example 30, 5-(2-fluorophenyl)-3,6,9-trimethylfuro[3,2-g]quinolin-7(8H)-one], the IC50 (Kv1.3) is reported as ≤ 0.5 µM and the IC50 [1] is reported as 1.3 to 3 µM.

With Cc1c(-c2ccccc2)c2cc3c(C)coc3c(C)c2[nH]c1=O [Example 31, 3,6,9-trimethyl-5-phenylfuro[3,2-g]quinolin-7(8H)-one] the IC50 (Kv1.3) was ≤ 0.5 µM and the IC50 [1] was ≤ 1.2 µM.

For Cc1c(-c2ccccc2)c2cc3c(C)coc3c(C)c2n(C)c1=O [Example 34, 3,6,8,9-tetramethyl-5-phenylfuro[3,2-g]quinolin-7(8H)-one], the “Arthritic Index (AI)” value (female Dark Agouti rats; 45 mg/kg, p.o., bid, DAY16 to DAY30) was “around 9.1”, the amelioration of arthritis (female Dark Agouti rats; DAY16 to DAY30) was “significant amelioration of arthritis” and the IC50 (Kv1.3) was ≤ 0.5 µM. It also gave an IC50 [1] of 1.3 to 3 µM.

Cc1csc2c(C)c3oc(=O)cc(-c4ccccc4)c3cc12 [Example 37, 6,9-dimethyl-4-phenyl-2H-thieno[3,2-g]chromen-2-one] showed an IC50 (Kv1.3) of 0.501 to 1.5 µM and an IC50 [1] of 3.1 to 15 µM.

With Cc1c(-c2ccccc2Cl)c2cc3c(C)coc3c(C)c2[nH]c1=O [Example 40, 5-(2-chlorophenyl)-3,6,9-trimethylfuro[3,2-g]quinolin-7(8H)-one] the IC50 (Kv1.3) was ≤ 0.5 µM and the IC50 [1] was ≤ 1.2 µM.

Cc1c2oc(=O)cc(-c3ccccc3)c2cc2c(C3CC3)coc12 [Example 41, 3-cyclopropyl-9-methyl-5-phenyl-7H-furo[3,2-g]chromen-7-one] was tested, and the IC50 (Kv1.3) was ≤ 0.5 µM and the IC50 [1] was 1.3 to 3 µM.

For Cc1c(-c2ccccc2)c2cc3c(C)csc3c(C)c2oc1=O [Example 43, 3,6,9-trimethyl-4-phenyl-2H-thieno[3,2-g]chromen-2-one], the IC50 (Kv1.3) was ≤ 0.5 µM and the IC50 [1] was 1.3 to 3 µM.

Cc1c(-c2ccccc2)c2cc3c(C)coc3nc2n(C)c1=O [Example 49, 3,6,8-trimethyl-5-phenylfuro[2,3-b][1,8]naphthyridin-7(8H)-one] was tested, and the IC50 (Kv1.3) was ≤ 0.5 µM and the IC50 [1] was 3.1 to 15 µM.

Cc1c(-c2cccnc2)c2cc3c(C)coc3c(C)c2oc1=O [Example 53, 3,6,9-trimethyl-5-(pyridin-3-yl)-7H-furo[3,2-g]chromen-7-one] was tested, and the “Arthritic Index (AI)” value (female Dark Agouti rats; 60 mg/kg, p.o., sid, DAY16 to DAY30) was “around 10.4”, the amelioration of arthritis (female Dark Agouti rats; DAY16 to DAY30) was “significant amelioration of arthritis” and the IC50 (Kv1.3) was ≤ 0.5 µM. It also gave an IC50 [1] of 1.3 to 3 µM.

For Cc1c(-c2cccnc2)c2cc3c(C)coc3c(C)c2[nH]c1=O [Example 54, 3,6,9-trimethyl-5-(pyridin-3-yl)furo[3,2-g]quinolin-7(8H)-one], the IC50 (Kv1.3) was ≤ 0.5 µM and the IC50 [1] was 3.1 to 15 µM.

Cc1c(-c2cccnc2)c2cc3c(C)coc3c(C)c2n(C)c1=O [Example 55, 3,6,8,9-tetramethyl-5-(pyridin-3-yl)furo[3,2-g]quinolin-7(8H)-one] was tested, and the IC50 (Kv1.3) was 0.501 to 1.5 µM and the IC50 [1] was 3.1 to 15 µM.

CN(Cc1cnc2nc(N)nc(N)c2n1)c1ccc(C(=O)N[C@@H](CCC(=O)O)C(=O)O)cc1 [MTX, methotrexate, reference compound] was tested, and the “Arthritic Index (AI)” value (female Dark Agouti rats; 0.05 mg/kg, i.p., sid, from DAY16) was ~8.7.
